PMC6132687, “Stem cells are the most sensitive screening tool to identify toxicity of GATA4-targeted novel small-molecule compounds” (Archives of Toxicology, 2018)

Tests used:
[1] = system: stem cell and progenitor cell viability; test: Toxicity classification from MTT screening across cell types; conditions: based on effects on stem cell and progenitor cell viability
Description: The cells were exposed to the test compounds for 24 h and cytotoxicity was quantified with MTT and LDH assays as described previously (Talman et al. [2011]). For the determination of cell membrane integrity, 50 µl of medium from each well was transferred onto a new 96-well plate followed by addition of 50 µl of substrate solution containing 1.3 mM β-nicotinamide adenine dinucleotide, 660 µM iodonitrotetrazolium, 54 mM L(+)-lactic acid, 280 µM phenazine methosulphate and 0.2 M Tris–HCl (pH 8.0). After a 30-min incubation, the reaction was stopped by adding 50 µl of 1 M acetic acid to each well and absorbance was measured at 490 nm using Victor2 plate reader (PerkinElmer, Turku, Finland). Spontaneous LDH release was measured from untreated cells, maximal LDH release from cells lysed with 0.9% Triton X-100 and background absorbance was measured from wells without cells. After background extraction, cytotoxicity was calculated as follows: cytotoxicity (%) = [(sample − spontaneous LDH release)/(maximal LDH release − spontaneous LDH release)] × 100. For quantification of metabolic activity, 3-(4,5-dimethylthiazol-2-yl)-2,5-diphenyltetrazolium bromide (MTT) was added to the cells at a final concentration of 0.5 mg/ml followed by 2 h incubation in cell culture conditions. The medium was then aspirated and formazan crystals were solubilized in DMSO. Absorbance was measured at 550 nm and absorbance at 650 nm was subtracted as background.
When comparing the effects of different compounds within each individual cell type, the compounds can be grouped into two main classes: toxic (3i-1000, 3i-1120, 3i-1148 and 3i-1229) and non-toxic (3i-1047, 3i-1051, 3i-1165, and 3i-1228) compounds. Based on the hiPSC toxicity data, 3i-1148 can be considered as the most toxic compound with an IC50 of 0.30 µM (Fig. 5b).

[2] = system: GATA4–NKX2-5 transcriptional synergy; test: Luciferase reporter assay of GATA4–NKX2-5 synergistic gene activation in COS-1 cells; type: cell-based, African green monkey; conditions: 24 h treatment, normalized to DMSO
Description: COS-1 cells were used to investigate the compound effects on GATA4–NKX2-5 synergistic gene activation using a luciferase reporter assay (Kinnunen et al. [2015]). Toxicity profiling was carried out in eight cell types: the H9c2 myoblast cell line, NRVCs, CFs, mESCs, MEFs, mESC derivatives from day 5 embryoid bodies (D5EBs), hiPSCs and hiPSC-CMs. All cell cultures were maintained at 37 °C in a humidified atmosphere of 5% carbon dioxide (CO2) and the regular growth medium was used for compound exposures. Cell culture methods and cardiomyocyte differentiation from human pluripotent stem cells are described in Supplementary Information.
The empty expression plasmid MT2 (pMT2) and mouse Gata4 expressing pMT2-Gata4 plasmids were gifts from D. B. Wilson (Department of Pediatrics, St. Louis Children’s Hospital) (Arceci et al. [1993]). The luciferase reporter plasmid pGL3-3xHA containing three Nkx2-5 high-affinity binding sites has been described previously (Kinnunen et al. [2015]). To create mouse Nkx2-5 expressing pMT2-Nkx2-5, the cDNA was cloned from pFLCI-Nkx2-5 (clone D330001C20, Imagenes), which was a kind gift from R. Kerkelä (University of Oulu, Finland), with primers containing the EcoRI restriction site (forward: 5′-[…]-3′ and reverse 5′-[…]-3′) and ligated to pMT2 EcoRI site. The correct clone was identified by digestion with specific restriction enzymes and the sequence was verified by DNA sequencing (DNA Sequencing and Genomics Laboratory, Institute of Biotechnology, University of Helsinki, Finland).
COS-1 cells grown on 96-well plates were transfected with the luciferase reporter plasmid pGL3-3xHA (100 ng/well) and equal amounts of expression vectors pMT2-Gata4 and pMT2-Nkx2-5 (total of 50 ng/well) using Fugene 6 (Promega) at a reagent:DNA ratio of 3:1. Cells transfected with either pMT2, pMT2-Gata4 or pMT2-Nkx2-5 were used to confirm synergistic transactivation of the reporter gene in all experiments. After 6 h of transfection, the cells were treated with compounds or vehicle (0.1% dimethyl sulfoxide, DMSO) and the luminescence was measured 24 h later using Neolite Reporter Gene Assay System (PerkinElmer, Turku, Finland) according to manufacturer’s instructions and Victor2 plate reader (PerkinElmer, Turku, Finland). Each compound was tested in three technical replicates in at least two independent experiments.
A luciferase reporter assay with an artificial promoter containing three high-affinity binding sites for NKX2-5 was used to evaluate the effects of the compounds on GATA4–NKX2-5 transcriptional synergy (Kinnunen et al. [2015]). We have previously shown that while GATA4 alone induces only minimal activation of this promoter, it strongly potentiates NKX2-5-mediated transactivation (Kinnunen et al. [2015]; Välimäki et al. [2017]).

SMILES | toxicity class (toxic / non-toxic) [1] | effect on GATA4- and NKX2-5-induced gene activation (luciferase reporter activity) [2]
CCN(CC)c1ccc(NC(=O)c2c(-c3ccccc3)noc2C)cc1 [3i-1000] | toxic | inhibitory effect
CCN(CC)c1ccc(NC(=O)c2c(C)noc2-c2cc(C)on2)cc1 [3i-1047] | non-toxic | only a weak effect
CCC(=O)N(Cc1ccc(N(CC)CC)cc1)c1c(-c2ccccc2)noc1C [3i-1120] | toxic | inhibitory effect
CCN(CC)c1ccc(NC(=O)c2cc(C)oc2-c2ccccc2)cc1 [3i-1148] | toxic | inhibitory effect
COc1ccc(-c2cc(N)nn2C(=O)c2c(-c3ccccc3)noc2C)cc1 [3i-1229] | toxic | only a weak effect
